In patent publication US20050074404A1, “Methods for avoiding renal injury” (Pfizer Inc., priority 2002, published 2005):

What was measured:
rat kidney [1] = experiment: Histopathology of rat kidney (H & E); type: in vivo
Source text: (§1) The physiological events that characterize the onset of phospholipidosis are well known to those with skill in the art (see, for example, Girton (2002)). […] Following endocytosis, the aminoglycoside accumulates in lysosomes. The lysosomes eventually swell with excess lipid debris. When visualized using electron-microscopy, the accumulated lipid appear as phospholipid inclusions, or myelin figures, within the lysosomes (Kosek et al. (1974)) (see FIG. 1 and FIG. 2 below). The phospholipid inclusions may also be visualized by staining with Sudan black as described, for example, in Presnell and Schreibman (1997) (see FIG. 3 below). The damage to renal tissue from phospholipidosis may be visualized by histological examination using hematoxylin and eosin staining (H & E) of the renal tissue damaged through phospholipidosis. The damage that is evident includes tubular degeneration, vacuolation and eventually, in advanced stages of damage, necrosis of the renal proximal tubule (see FIG. 5 and FIG. 6 below).
(§2) Male Sprague Dawley rats (105-125 grams each) were purchased from Charles River (Kingston, N.Y.). […] Rats were dosed intramuscular, using a 25 gauge tuberculin syringe. The animals were housed individually prior to urine collection. For the urine collection, rats were transferred to individual metabolism cages. At all times throughout the study, the animals had free access to food and water. […] Rats were dosed once per day for the duration of 1, 4 or 9 days. Urine was collected after one dose, four doses and nine doses. Each collection period was for 24 hours. Urine was collected, chilled to approximately 4° C. and protected from light. Total urine volume was measured at the end of each collection period prior to retinol analysis. The urine was stored at −80° C. and in darkness to protect the components of the urine from oxidation and degration until analysis.

[2] = Urinary albumin concentrations in rats; type: in vivo, rat; conditions: 100 mg/kg once per day
Method: as §2

rat kidney [3] = experiment: Sudan black staining of rat kidney for phospholipids; type: in vivo
Source text: as §1, §2

rat proximal tubule = experiment: Electron microscopy of rat proximal tubule; type: in vivo; conditions: four days of treatment with 100 mg/kg
Source text: as §1
Male Sprague Dawley rats (105-125 grams each) were purchased from Charles River (Kingston, N.Y.). […] Rats were dosed intramuscular, using a 25 gauge tuberculin syringe. The animals were housed individually prior to urine collection. […] Total urine volume was measured at the end of each collection period prior to retinol analysis. […]

[4] = Urinary retinol concentrations in rats (HPLC); type: in vivo, rat; conditions: 100 mg/kg intramuscular once per day, 24 h urine
Method: A. Dosing of Mammals, Collection and Storage of Urine
as §2
B. Measurement of Retinol in Urine Samples
The acetonitrile, methanol, isopropanol and tetrahydrofuran (THF) were purchased from J. T. Baker (Phillipsburg, N.J.). The acetonitrile and methanol were HPLC grade and the isopropanol and THF were ACS reagent grade. The water in the mobile phase came from a Nanopure® water filtration system (Barnstead, Dubuque, Ind.). Retinol and retinol acetate standards were purchased from ICN Biomedicals (Costa Mesa, Calif.). The retinol palmitate was purchased from Sigma Chemicals (St. Louis, Mo.).
The HPLC instrumentation consisted of a Hewlett-Packard Model 1090 Series II system (Hewlett Packard Company, Palo Alto, Calif.) equipped with a tertiary gradient pump, diode array detector, and a cooled auto-sampler. Hewlett-Packard Chemstation™ software (Rev. 5.02) was used for data collection and analysis. Absorbance data for all retinols was collected at a wavelength of 340 nm. All separations were carried out on a 15 cm×2.0 mm, 5μ particle size, Prodigy ODS (2) HPLC column (Phenomenex, Torrance, Calif.). The column was equipped with an inlet filter, 0.5μ×1.5 mm (Phenomenex, Torrance, Calif.). […]

Q: What does the source list for Gentamicin sulfate?
A: Histopathologic effects, onset (rat kidney [1]; 100 mg/kg once per day): do not begin to appear until day four; Chronic Progressive Nephropathy, slight, number of animals (rat kidney [1]; 100 mg/kg, Day 1, of 8 rats): 1; Hyaline droplets, slight, number of animals (rat kidney [1]; 100 mg/kg, Day 1, of 8 rats): 3; No significant findings, number of animals (rat kidney [1]; 100 mg/kg, Day 1, of 8 rats): 4; Chronic Progressive Nephropathy, slight, number of animals (rat kidney [1]; 100 mg/kg, Day 4, of 8 rats): 2; Hyaline droplets, mild, number of animals (rat kidney [1]; 100 mg/kg, Day 4, of 8 rats): 1; Hyaline droplets, slight, number of animals (rat kidney [1]; 100 mg/kg, Day 4, of 8 rats): 3; Tubular degeneration (1), mild, number of animals (rat kidney [1]; 100 mg/kg, Day 4, of 8 rats): 2; Tubular degeneration (1), slight, number of animals (rat kidney [1]; 100 mg/kg, Day 4, of 8 rats): 6; Tubular vacuolation, mild, number of animals (rat kidney [1]; 100 mg/kg, Day 4, of 8 rats): 3; Tubular vacuolation, slight, number of animals (rat kidney [1]; 100 mg/kg, Day 4, of 8 rats): 3; Hyaline droplets, mild, number of animals (rat kidney [1]; 100 mg/kg, Day 9, of 8 rats): 4; Hyaline droplets, slight, number of animals (rat kidney [1]; 100 mg/kg, Day 9, of 8 rats): 1; Tubular degeneration/necrosis/regeneration (3), marked, number of animals (rat kidney [1]; 100 mg/kg, Day 9, of 8 rats): 6; Tubular degeneration/necrosis/regeneration (3), severe, number of animals (rat kidney [1]; 100 mg/kg, Day 9, of 8 rats): 2; Tubular vacuolation, mild, number of animals (rat kidney [1]; 100 mg/kg, Day 9, of 8 rats): 2; Tubular vacuolation, moderate, number of animals (rat kidney [1]; 100 mg/kg, Day 9, of 8 rats): 4; Tubular vacuolation, slight, number of animals (rat kidney [1]; 100 mg/kg, Day 9, of 8 rats): 1; Rat kidney tissue histology (FIG. 5) (rat kidney [1]; four days of treatment with 100 mg/kg): early lesions formation; Rat kidney tissue histology (FIG. 6) (rat kidney [1]; nine days of treatment with 100 mg/kg): extensive kidney tissue damage; Urinary albumin concentration ([2]; Day 1, mean of eight rats): 163 µg/mL; Urinary albumin concentration ([2]; Day 4, mean of eight rats): 354 µg/mL; Urinary albumin concentration ([2]; Day 9, mean of eight rats): 1184 µg/mL; Significant Sudan black staining, onset (rat kidney [3]; 100 mg/kg once per day): not observed until day four; Sudan black staining negative, number of animals (rat kidney [3]; 100 mg/kg, Day 1, of 8 rats): 3; Sudan black staining slight, number of animals (rat kidney [3]; 100 mg/kg, Day 1, of 8 rats): 5; Sudan black staining mild, number of animals (rat kidney [3]; 100 mg/kg, Day 4, of 8 rats): 1; Sudan black staining mild-moderate, number of animals (rat kidney [3]; 100 mg/kg, Day 4, of 8 rats): 2; Sudan black staining moderate, number of animals (rat kidney [3]; 100 mg/kg, Day 4, of 8 rats): 2; Sudan black staining moderate-marked, number of animals (rat kidney [3]; 100 mg/kg, Day 4, of 8 rats): 3; Sudan black staining marked, number of animals (rat kidney [3]; 100 mg/kg, Day 9, of 8 rats): 1; Sudan black staining mild, number of animals (rat kidney [3]; 100 mg/kg, Day 9, of 8 rats): 1; Sudan black staining mild-moderate, number of animals (rat kidney [3]; 100 mg/kg, Day 9, of 8 rats): 1; Sudan black staining moderate, number of animals (rat kidney [3]; 100 mg/kg, Day 9, of 8 rats): 2; Sudan black staining moderate-marked, number of animals (rat kidney [3]; 100 mg/kg, Day 9, of 8 rats): 3; Sudan black staining (rat kidney [3]; after a single dose (100 mg/kg)): slight staining; Electron-micrograph finding in rat proximal tubule (FIG. 1) (rat proximal tubule): phospholipid inclusions or myelin figures; Urinary retinol concentration ([4]; Day 1, mean of eight rats): 123.57 nM; Urinary retinol concentration ([4]; Day 4, mean of eight rats): 131.08 nM; Urinary retinol concentration ([4]; Day 9, mean of eight rats): 2457.13 nM
